Data from ChEMBL document CHEMBL1157483, “Discovery of potent, orally active benzimidazole glucagon receptor antagonists” (Bioorg Med Chem Lett, 2008).
The source made the active and inactive calls. The calls are words filed in the database; no cut-off is given here.

What was measured:
Glucagon receptor [1] = target: T1, Glucagon receptor (Homo sapiens, UniProt P47871); assay: Antagonist activity against human GCGR expressed in CHO cells assessed as glucagon-induced cAMP accumulation; assay type: functional, cell-based
T1 sequence (P47871 whole entry): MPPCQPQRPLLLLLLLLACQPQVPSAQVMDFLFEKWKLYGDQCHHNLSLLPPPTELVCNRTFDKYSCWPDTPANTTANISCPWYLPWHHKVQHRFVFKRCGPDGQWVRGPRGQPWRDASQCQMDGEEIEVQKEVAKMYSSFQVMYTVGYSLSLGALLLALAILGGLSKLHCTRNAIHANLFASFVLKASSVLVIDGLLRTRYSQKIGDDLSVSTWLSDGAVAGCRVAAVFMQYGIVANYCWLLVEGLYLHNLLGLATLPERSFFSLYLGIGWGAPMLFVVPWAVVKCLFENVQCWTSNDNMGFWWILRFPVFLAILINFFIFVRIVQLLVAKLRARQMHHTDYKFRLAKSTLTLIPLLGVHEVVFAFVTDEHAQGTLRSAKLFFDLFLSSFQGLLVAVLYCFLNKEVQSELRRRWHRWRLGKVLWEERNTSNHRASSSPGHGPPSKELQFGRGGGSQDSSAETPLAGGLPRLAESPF

[2] = target: T2, Gastric inhibitory polypeptide receptor (Homo sapiens, UniProt P48546); assay: Binding affinity against human GIP
T2 sequence (P48546 whole entry): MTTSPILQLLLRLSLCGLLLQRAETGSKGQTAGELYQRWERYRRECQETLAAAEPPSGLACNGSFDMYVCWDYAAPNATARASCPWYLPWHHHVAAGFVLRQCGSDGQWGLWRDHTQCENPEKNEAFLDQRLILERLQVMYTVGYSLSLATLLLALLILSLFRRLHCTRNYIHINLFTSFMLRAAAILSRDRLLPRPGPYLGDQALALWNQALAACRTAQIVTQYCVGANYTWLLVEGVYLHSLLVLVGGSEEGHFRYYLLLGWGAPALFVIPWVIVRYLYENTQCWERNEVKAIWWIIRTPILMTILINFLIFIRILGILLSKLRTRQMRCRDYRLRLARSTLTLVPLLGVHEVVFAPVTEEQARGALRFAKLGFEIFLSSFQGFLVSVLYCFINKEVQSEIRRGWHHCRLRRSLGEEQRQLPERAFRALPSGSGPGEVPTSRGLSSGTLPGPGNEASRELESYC

[3] = Half life in mouse at 1 mg/kg, iv and 2 mg/kg, po; assay type: ADME, organism-based; conditions: in vivo
Homo sapiens [4] = species on record: Homo sapiens; assay: Selectivity for human glucagon receptor over human GLP1
[5] = target: Glucagon-like peptide 1 receptor, Homo sapiens (UniProt P43220); assay: Binding affinity against human GLP1
Glucagon-like peptide 1 receptor, Homo sapiens, sequence (P43220 whole entry, looked up): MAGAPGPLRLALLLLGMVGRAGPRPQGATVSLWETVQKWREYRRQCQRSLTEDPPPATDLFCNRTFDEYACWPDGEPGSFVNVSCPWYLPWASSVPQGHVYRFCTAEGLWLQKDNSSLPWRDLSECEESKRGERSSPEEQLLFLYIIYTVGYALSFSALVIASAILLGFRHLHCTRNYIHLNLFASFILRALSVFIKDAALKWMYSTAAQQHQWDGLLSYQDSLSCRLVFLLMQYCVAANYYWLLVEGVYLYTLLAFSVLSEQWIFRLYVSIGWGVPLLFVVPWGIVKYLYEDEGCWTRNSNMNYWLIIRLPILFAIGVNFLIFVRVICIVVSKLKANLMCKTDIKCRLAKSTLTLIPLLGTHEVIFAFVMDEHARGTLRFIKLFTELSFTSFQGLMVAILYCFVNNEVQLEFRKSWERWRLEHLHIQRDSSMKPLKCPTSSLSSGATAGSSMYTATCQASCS

[6] = Half life in rat at 1 mg/kg, iv and 2 mg/kg, po; assay type: ADME, organism-based; conditions: in vivo
[7] = Clearance in rat at 1 mg/kg, iv and 2 mg/kg, po; assay type: ADME, organism-based; conditions: in vivo
Glucagon receptor [8] = target: T1, Glucagon receptor; assay: Displacement of [125I]glucagon from human GCGR expressed in CHO cells; assay type: cell-based
[9] = Oral bioavailability in mouse at 2 mg/kg; assay type: ADME, organism-based; conditions: in vivo
[10] = Volume of distribution at steady state in rat at 1 mg/kg, iv and 2 mg/kg, po; assay type: ADME, organism-based; conditions: in vivo, read-out: Vdss
Homo sapiens [11] = species on record: Homo sapiens; assay: Selectivity for human glucagon receptor over human GIP
[12] = Volume of distribution at steady state in mouse at 1 mg/kg, iv and 2 mg/kg, po; assay type: ADME, organism-based; conditions: in vivo, read-out: Vdss
[13] = Clearance in mouse at 1 mg/kg, iv and 2 mg/kg, po; assay type: ADME, organism-based; conditions: in vivo
[14] = Oral bioavailability in rat at 2 mg/kg; assay type: ADME, organism-based; conditions: in vivo
Cytochrome P450 2C9 = Cytochrome P450 2C9 (Homo sapiens, UniProt P11712); assay: Inhibition of CYP2C9; assay type: ADME
Cytochrome P450 2C9, sequence (P11712 whole entry): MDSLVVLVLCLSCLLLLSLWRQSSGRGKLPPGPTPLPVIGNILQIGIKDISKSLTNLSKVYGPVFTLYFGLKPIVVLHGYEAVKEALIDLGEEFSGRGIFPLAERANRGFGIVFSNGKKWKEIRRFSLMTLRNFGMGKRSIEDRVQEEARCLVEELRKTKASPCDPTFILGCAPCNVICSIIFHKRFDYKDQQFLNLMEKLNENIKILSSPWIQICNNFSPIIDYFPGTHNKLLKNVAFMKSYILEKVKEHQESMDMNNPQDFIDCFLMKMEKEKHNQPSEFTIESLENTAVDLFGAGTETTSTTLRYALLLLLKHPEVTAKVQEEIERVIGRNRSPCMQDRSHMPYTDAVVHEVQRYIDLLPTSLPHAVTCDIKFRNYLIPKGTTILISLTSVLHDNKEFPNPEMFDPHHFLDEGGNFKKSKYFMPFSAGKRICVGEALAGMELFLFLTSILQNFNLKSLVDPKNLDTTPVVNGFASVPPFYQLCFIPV

[15] = Clearance in dog at 0.25 mg/kg, iv and 1 mg/kg, po; assay type: ADME, organism-based, Canis lupus familiaris; conditions: in vivo
[16] = Oral bioavailability in dog at 1 mg/kg; assay type: ADME, organism-based, Canis lupus familiaris; conditions: in vivo
Mus musculus [17] = assay: Inhibition of glucagon-dependent glucose excursion in transgenic mouse expressing human glucagon receptor at 3 to 30 mg/kg, po; assay type: functional, organism-based
[18] = Half life in rhesus monkey at 0.5 mg/kg, iv and 2 mg/kg, po; assay type: ADME, organism-based, Macaca mulatta; conditions: in vivo
[19] = Clearance in rhesus monkey at 0.5 mg/kg, iv and 2 mg/kg, po; assay type: ADME, organism-based, Macaca mulatta; conditions: in vivo
Rhesus monkey [20] = assay: Inhibition of glucagon-dependent glucose excursion in rhesus monkey at 3 mg/kg, po; assay type: functional, organism-based; set-up: dose 3 mg/kg; conditions: Macaca mulatta
[21] = Oral bioavailability in rhesus monkey at 2 mg/kg; assay type: ADME, organism-based, Macaca mulatta; conditions: in vivo
[22] = Half life in dog at 0.25 mg/kg, iv and 1 mg/kg, po; assay type: ADME, organism-based, Canis lupus familiaris; conditions: in vivo
Cytochrome P450 3A4 = Cytochrome P450 3A4 (Homo sapiens, UniProt P08684); assay: Inhibition of CYP3A4; assay type: ADME
Cytochrome P450 3A4, sequence (P08684 whole entry): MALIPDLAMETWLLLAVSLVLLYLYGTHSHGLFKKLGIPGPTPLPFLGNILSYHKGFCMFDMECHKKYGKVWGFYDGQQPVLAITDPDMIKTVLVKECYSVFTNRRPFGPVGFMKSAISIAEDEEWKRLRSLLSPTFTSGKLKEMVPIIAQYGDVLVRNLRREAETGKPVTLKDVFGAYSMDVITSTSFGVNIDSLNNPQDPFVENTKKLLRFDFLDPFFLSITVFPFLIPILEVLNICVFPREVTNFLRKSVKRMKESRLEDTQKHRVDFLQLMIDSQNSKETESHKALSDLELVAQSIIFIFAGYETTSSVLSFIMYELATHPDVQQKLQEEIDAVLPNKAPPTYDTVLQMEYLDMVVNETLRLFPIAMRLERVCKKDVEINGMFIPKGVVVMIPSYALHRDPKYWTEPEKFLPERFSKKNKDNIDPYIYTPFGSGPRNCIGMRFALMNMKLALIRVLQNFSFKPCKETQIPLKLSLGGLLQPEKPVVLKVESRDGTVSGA

Rhesus monkey [23] = assay: Inhibition of glucagon-dependent glucose excursion in rhesus monkey at 10 mg/kg, po; assay type: functional, organism-based; set-up: dose 10 mg/kg; conditions: Macaca mulatta
[24] = Volume of distribution at steady state in dog at 0.25 mg/kg, iv and 1 mg/kg, po; assay type: ADME, organism-based, Canis lupus familiaris; conditions: in vivo, read-out: Vdss
[25] = Volume of distribution at steady state in rhesus monkey at 0.5 mg/kg, iv and 2 mg/kg, po; assay type: ADME, organism-based, Macaca mulatta; conditions: in vivo, read-out: Vdss
Mus musculus [26] = assay: Reduction of glucose level in po dosed fat diet-induced diabetic mouse transgenic model expressing human glucagon receptor administered for 10 days; assay type: functional, organism-based
[27] = Antagonist activity against rhesus monkey glucagon receptor assessed as cAMP accumulation; assay type: functional, Macaca mulatta
[28] = target: Voltage-gated inwardly rectifying potassium channel KCNH2 (Homo sapiens, UniProt Q12809); assay: Inhibition of hERG potassium channel; assay type: toxicity
Voltage-gated inwardly rectifying potassium channel KCNH2, sequence (Q12809 whole entry): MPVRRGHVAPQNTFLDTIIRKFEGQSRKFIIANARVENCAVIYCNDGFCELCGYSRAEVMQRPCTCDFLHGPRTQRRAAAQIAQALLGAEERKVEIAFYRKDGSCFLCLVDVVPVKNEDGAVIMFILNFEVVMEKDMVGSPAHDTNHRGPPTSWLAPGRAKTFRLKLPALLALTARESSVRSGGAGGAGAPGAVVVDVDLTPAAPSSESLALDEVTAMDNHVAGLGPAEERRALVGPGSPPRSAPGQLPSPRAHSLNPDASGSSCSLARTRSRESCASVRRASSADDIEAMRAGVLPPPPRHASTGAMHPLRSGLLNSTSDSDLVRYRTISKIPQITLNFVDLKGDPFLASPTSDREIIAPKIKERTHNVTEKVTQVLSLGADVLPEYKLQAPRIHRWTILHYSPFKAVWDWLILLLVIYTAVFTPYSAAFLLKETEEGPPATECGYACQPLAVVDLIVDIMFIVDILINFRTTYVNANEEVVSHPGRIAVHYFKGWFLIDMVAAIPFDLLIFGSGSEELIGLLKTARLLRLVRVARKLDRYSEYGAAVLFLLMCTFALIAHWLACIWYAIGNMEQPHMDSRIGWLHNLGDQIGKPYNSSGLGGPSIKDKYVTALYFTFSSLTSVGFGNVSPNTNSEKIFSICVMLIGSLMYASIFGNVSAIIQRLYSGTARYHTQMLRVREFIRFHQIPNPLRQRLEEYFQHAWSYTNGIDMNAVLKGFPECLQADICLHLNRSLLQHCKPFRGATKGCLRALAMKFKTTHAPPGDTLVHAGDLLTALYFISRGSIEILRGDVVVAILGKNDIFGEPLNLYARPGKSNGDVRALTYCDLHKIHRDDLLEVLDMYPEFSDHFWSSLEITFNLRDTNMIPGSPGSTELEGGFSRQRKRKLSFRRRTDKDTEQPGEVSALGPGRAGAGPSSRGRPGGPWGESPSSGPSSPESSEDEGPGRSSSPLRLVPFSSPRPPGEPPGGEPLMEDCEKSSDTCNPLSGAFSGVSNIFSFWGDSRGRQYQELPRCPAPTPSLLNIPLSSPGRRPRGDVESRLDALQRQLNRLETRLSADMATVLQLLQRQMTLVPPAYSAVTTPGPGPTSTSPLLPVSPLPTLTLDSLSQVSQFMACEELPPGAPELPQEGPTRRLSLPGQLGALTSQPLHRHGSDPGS

Cytochrome P450 2D6 = Cytochrome P450 2D6 (Homo sapiens, UniProt P10635); assay: Inhibition of CYP2D6; assay type: ADME
Cytochrome P450 2D6, sequence (P10635 whole entry): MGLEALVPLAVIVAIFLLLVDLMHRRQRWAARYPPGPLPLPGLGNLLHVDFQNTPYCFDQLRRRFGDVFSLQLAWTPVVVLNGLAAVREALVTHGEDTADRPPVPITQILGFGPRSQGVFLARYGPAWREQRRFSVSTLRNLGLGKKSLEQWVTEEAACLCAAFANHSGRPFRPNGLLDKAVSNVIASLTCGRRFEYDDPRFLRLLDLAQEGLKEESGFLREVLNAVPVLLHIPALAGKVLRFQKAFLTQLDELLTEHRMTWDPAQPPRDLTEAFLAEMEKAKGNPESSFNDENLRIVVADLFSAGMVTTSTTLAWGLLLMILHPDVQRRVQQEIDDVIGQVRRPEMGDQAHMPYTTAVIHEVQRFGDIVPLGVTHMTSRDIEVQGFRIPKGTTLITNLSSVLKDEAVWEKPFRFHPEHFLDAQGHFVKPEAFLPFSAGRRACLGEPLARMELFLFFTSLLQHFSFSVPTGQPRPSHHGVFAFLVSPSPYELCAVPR

Cn1c(N(Cc2ccc(C(=O)Nc3nnn[nH]3)cc2)[C@H]2CC[C@H](C(C)(C)C)CC2)nc2cc(OC3CCCC3)ccc21
IC50 (Glucagon receptor [1]): 9 nM
IC50 [2]: 2000 nM
half-life [3]: 3.2 h
Selectivity ratio (Homo sapiens [4]): > 50
IC50 [5]: 5000 nM
half-life [6]: 2.9 h
clearance [7]: 13 mL/min/kg
IC50 (Glucagon receptor [8]): 1 nM
bioavailability [9]: 2%
Vd [10]: 0.6 L/kg
Selectivity ratio (Homo sapiens [11]): > 50
Vd [12]: 0.5 L/kg
clearance [13]: 10 mL/min/kg
bioavailability [14]: 5%

COc1ccc2nc(N(Cc3ccc(C(=O)Nc4nnn[nH]4)cc3)[C@H]3CC[C@H](C(C)(C)C)CC3)n(C)c2c1
IC50 (Glucagon receptor [1]): 213 nM
IC50 [2]: > 1000 nM
Selectivity ratio (Homo sapiens [4]): > 50
IC50 (Glucagon receptor [8]): 4 nM
Selectivity ratio (Homo sapiens [11]): > 50

Cc1ccc2[nH]c(N(Cc3ccc(C(=O)Nc4nnn[nH]4)cc3)c3ccc(Oc4ccc(Cl)cc4)c(Cl)c3)nc2c1
IC50 (Glucagon receptor [1]): > 1000 nM
IC50 (Glucagon receptor [8]): 13 nM

CCCn1c(N(Cc2ccc(C(=O)Nc3nnn[nH]3)cc2)[C@H]2CC[C@H](C(C)(C)C)CC2)nc2ccccc21
IC50 (Glucagon receptor [8]): 24 nM

Cn1c(N(Cc2ccc(C(=O)Nc3nnn[nH]3)cc2)[C@H]2CC[C@H](C(C)(C)C)CC2)nc2cc(O)ccc21
IC50 (Glucagon receptor [1]): > 1000 nM
IC50 [2]: > 1000 nM
Selectivity ratio (Homo sapiens [4]): > 50
IC50 (Glucagon receptor [8]): 2 nM
Selectivity ratio (Homo sapiens [11]): > 50

Cc1cc2nc(N(Cc3ccc(C(=O)Nc4nnn[nH]4)cc3)[C@H]3CC[C@H](C(C)(C)C)CC3)n(C)c2cc1C
IC50 (Glucagon receptor [1]): 18 nM
IC50 [2]: > 10000 nM
Selectivity ratio (Homo sapiens [4]): > 50
IC50 (Glucagon receptor [8]): 6 nM
Selectivity ratio (Homo sapiens [11]): > 50

CCOc1ccc2c(c1)nc(N(Cc1ccc(C(=O)Nc3nnn[nH]3)cc1)[C@H]1CC[C@H](C(C)(C)C)CC1)n2C
IC50 (Glucagon receptor [1]): 22 nM
IC50 [2]: 2800 nM
Selectivity ratio (Homo sapiens [4]): > 50
IC50 [5]: 7600 nM
IC50 (Glucagon receptor [8]): 2 nM
Selectivity ratio (Homo sapiens [11]): > 50

CCCOc1ccc2nc(N(Cc3ccc(C(=O)Nc4nnn[nH]4)cc3)[C@H]3CC[C@H](C(C)(C)C)CC3)n(C)c2c1
IC50 (Glucagon receptor [1]): 8 nM
IC50 [2]: 4900 nM
Selectivity ratio (Homo sapiens [4]): > 50
IC50 [5]: 5000 nM
IC50 (Glucagon receptor [8]): 1 nM
Selectivity ratio (Homo sapiens [11]): > 50

Cn1c(N(Cc2ccc(C(=O)Nc3nnn[nH]3)cc2)[C@H]2CC[C@H](C(C)(C)C)CC2)nc2cc(C(F)(F)F)ccc21
IC50 (Cytochrome P450 2C9): > 10000 nM
clearance [15]: 3.8 mL/min/kg
IC50 (Glucagon receptor [1]): 62 nM
bioavailability [16]: 27%
Activity (Mus musculus [17]): Active
IC50 [2]: 6000 nM
half-life [18]: 2.4 h
half-life [3]: 1.9 h
clearance [19]: 16 mL/min/kg
Selectivity ratio (Homo sapiens [4]): > 50
IC50 [5]: 6800 nM
half-life [6]: 1.6 h
clearance [7]: 12 mL/min/kg
IC50 (Glucagon receptor [8]): 11 nM
bioavailability [9]: 2%
Activity (Rhesus monkey [20]): Active
bioavailability [21]: 23%
Vd [10]: 0.74 L/kg
half-life [22]: 2.1 h
Selectivity ratio (Homo sapiens [11]): > 50
IC50 (Cytochrome P450 3A4): > 10000 nM
Activity (Rhesus monkey [23]): Active
Vd [12]: 0.33 L/kg
clearance [13]: 4 mL/min/kg
Vd [24]: 0.5 L/kg
Vd [25]: 0.8 L/kg
Activity (Mus musculus [26]): Dose-dependent effect
bioavailability [14]: 5%
IC50 [27]: 111 nM
IC50 [28]: > 10000 nM
IC50 (Cytochrome P450 2D6): > 10000 nM

COc1ccc2c(c1)nc(N(Cc1ccc(C(=O)Nc3nnn[nH]3)cc1)[C@H]1CC[C@H](C(C)(C)C)CC1)n2C
IC50 (Glucagon receptor [1]): 38 nM
IC50 [2]: 2500 nM
Selectivity ratio (Homo sapiens [4]): > 50
IC50 [5]: 5900 nM
IC50 (Glucagon receptor [8]): 4 nM
Selectivity ratio (Homo sapiens [11]): > 50

Cc1ccc2[nH]c(N(Cc3ccc(C(=O)Nc4nnn[nH]4)cc3)[C@H]3CC[C@H](C(C)(C)C)CC3)nc2c1
IC50 (Glucagon receptor [1]): > 1000 nM
IC50 (Glucagon receptor [8]): 10 nM

Cn1c(N(Cc2ccc(C(=O)Nc3nnn[nH]3)cc2)c2ccc(C(C)(C)C)cc2)nc2ccccc21
IC50 (Glucagon receptor [1]): 810 nM
IC50 (Glucagon receptor [8]): 31 nM

CC(C)(C)[C@H]1CC[C@@]2(CCN(c3ccc(OC(F)(F)F)cc3)C(=O)N2Cc2ccc(C(=O)Nc3nnn[nH]3)cc2)CC1
IC50 (Glucagon receptor [8]): 32 nM
